Test systems include MOLT-4 leukemia; HL-60(TB) leukemia; KM12 colon; NCI-H460 lung; ACHN renal; A498 renal; NCI/ADR-RES ovarian; IGROV1 ovarian; UO-31 renal; UACC-62 melanoma.
Assay in all cases: NCI tumour cell line growth inhibition, 48 h

Values joined by “and” are separate entries in the source; they are usually repeats but may differ in a detail not shown here. Identical values can stand only once.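 Grown in 96-well plates, cells were treated for 48 hours with each compound at five concentrations. Insufficient inhibition: endpoint recorded as highest concentration tested. GI50 marks 50% less growth. TGI denotes the concentration required for complete inhibition of growth.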

With `Oc1c(Cl)cc(Cl)c2ccc(Cn3cc(-c4ccc(C(F)(F)F)cc4)nn3)nc12`, the GI50 in the test on MOLT-4 leukemia is 0.825 µM; in the test with HL-60(TB) leukemia, 0.685 µM; with KM12 colon, 12.1 µM; in the test with NCI-H460 lung, 18.9 µM; in the test on ACHN renal, 1.35 µM; in the test on A498 renal, 3.57 µM. Also, the GI50 in the test on NCI/ADR-RES ovarian is 19 µM; with IGROV1 ovarian, 1.41 µM; with UO-31 renal it was 1.36 µM; in the test with UACC-62 melanoma, 2.61 µM. Moreover, the TGI turned out to be 8.8 µM with MOLT-4 leukemia; 3.65 µM in the test on HL-60(TB) leukemia; 26.6 µM in the test on KM12 colon; 37.3 µM in the test on NCI-H460 lung; 2.67 µM in the test with ACHN renal; 13.8 µM with A498 renal. Besides, the TGI was 64.2 µM in the test with NCI/ADR-RES ovarian, 3.19 µM with IGROV1 ovarian, 3.62 µM in the test with UO-31 renal and 11.9 µM in the test with UACC-62 melanoma.
On to `Clc1ccccc1-c1nnc2c(Cc3ccccc3)nc3ccccc3n12`, for which the GI50 in the test on MOLT-4 leukemia is 9.04 µM; with HL-60(TB) leukemia, 32.5 µM; with KM12 colon it was 13.1 µM; in the test with NCI-H460 lung, 3.18 µM; in the test with ACHN renal, 39.4 µM; with A498 renal, 1.21 µM. Further, the GI50 in the test on NCI/ADR-RES ovarian is 12.7 µM; in the test on IGROV1 ovarian, 44 µM; with UO-31 renal, over 50 µM; in the test with UACC-62 melanoma, 6.9 µM. Besides, the TGI in the test on MOLT-4 leukemia, in the test on HL-60(TB) leukemia, with KM12 colon, in the test on NCI-H460 lung, with ACHN renal and in the test with A498 renal was over 100 µM throughout. Also, the TGI with NCI/ADR-RES ovarian, in the test with IGROV1 ovarian, in the test with UO-31 renal and in the test with UACC-62 melanoma was over 100 µM throughout.
Consider `CC(=O)c1cc(C(=O)c2ccc3c(c2)Sc2ccccc2N3)n2ccccc12`, for which the GI50 was 0.00623 µM and 0.00332 µM in the test with MOLT-4 leukemia; 0.00237 µM in the test with HL-60(TB) leukemia; 0.00441 µM in the test with KM12 colon; 0.00339 µM and 0.00332 µM in the test with NCI-H460 lung; 0.00545 µM with ACHN renal; 0.00225 µM and 0.00332 µM in the test on A498 renal. The GI50 in the test with NCI/ADR-RES ovarian is 0.00393 µM and 0.00332 µM; with IGROV1 ovarian it was 0.00897 µM and 0.0258 µM; in the test on UO-31 renal it was 0.00579 µM and 0.00332 µM; in the test with UACC-62 melanoma, 0.00293 µM and 0.00332 µM. Also, the TGI in the test with MOLT-4 leukemia was over 33.2 µM; in the test with HL-60(TB) leukemia it was 0.0056 µM; in the test with NCI/ADR-RES ovarian it was 1.86 µM; in the test on IGROV1 ovarian it was over 33.2 µM; in the test on UO-31 renal, over 33.2 µM; in the test on UACC-62 melanoma, over 33.2 µM.
Regarding `CO[C@H]1CC(O[C@@H]2/C(C)=C/C[C@@H]3C[C@@H](C[C@]4(CC[C@H](C)[C@@H](C5CCCCC5)O4)O3)OC(=O)[C@@H]3C=C(C)/C(=N/O)[C@H]4OC/C(=C\C=C\[C@@H]2C)[C@]43O)O[C@@H](C)C1O` (stereo partly drawn), the GI50 in the test with MOLT-4 leukemia was 1.12 µM; in the test with HL-60(TB) leukemia it was 1.01 µM; with KM12 colon, 0.826 µM; in the test with NCI-H460 lung, 0.793 µM; in the test with ACHN renal it was 0.994 µM; in the test with A498 renal it was 0.802 µM. The GI50 in the test with NCI/ADR-RES ovarian is 1.07 µM; with IGROV1 ovarian it was 1.07 µM; in the test with UO-31 renal it was 0.769 µM; in the test on UACC-62 melanoma, 0.786 µM. The TGI was determined as 2.53 µM in the test on MOLT-4 leukemia; 2.27 µM with HL-60(TB) leukemia; 1.52 µM with KM12 colon; 1.51 µM in the test with NCI-H460 lung; 2.01 µM with ACHN renal; 1.95 µM in the test on A498 renal. The TGI stood at 2.9 µM in the test with NCI/ADR-RES ovarian, 2.69 µM with IGROV1 ovarian, 1.98 µM in the test on UO-31 renal and 1.54 µM in the test on UACC-62 melanoma.
Consider `O=C1C=CC(=O)c2c(O)c3c(c(O)c21)C[C@H](O)[C@H](O)[C@@H]3O`, for which the TGI with MOLT-4 leukemia was over 23.6 µM; in the test with HL-60(TB) leukemia, 2.9 µM; in the test on KM12 colon it was 16.8 µM; in the test with NCI-H460 lung it was 16.8 µM; in the test with ACHN renal it was 8 µM; in the test with A498 renal it was 13.3 µM. The TGI in the test on NCI/ADR-RES ovarian is 8.16 µM; in the test on IGROV1 ovarian, 6.92 µM; in the test with UO-31 renal it was over 24 µM; with UACC-62 melanoma it was 10.1 µM.
For `COc1cc(C(=O)c2cnc(-c3cccc4[nH]ccc34)[nH]2)cc(OC)c1OC`, the TGI in the test with MOLT-4 leukemia was over 100 µM; in the test on HL-60(TB) leukemia, under 0.01 µM; in the test with KM12 colon it was 24 µM; in the test on NCI-H460 lung it was over 100 µM; with ACHN renal, 33.8 µM; in the test with NCI/ADR-RES ovarian, over 100 µM. In addition, the TGI was over 100 µM with IGROV1 ovarian, 21 µM in the test on UO-31 renal and 93.6 µM with UACC-62 melanoma. The GI50 in the test with HL-60(TB) leukemia was under 0.01 µM; in the test with KM12 colon, 0.04 µM and < 0.01 µM; in the test with NCI-H460 lung, 0.0434 µM and < 0.01 µM; with A498 renal, 0.049 µM and < 0.01 µM; with NCI/ADR-RES ovarian it was 0.0729 µM and < 0.01 µM; in the test on IGROV1 ovarian, 0.0966 µM and < 0.01 µM. Moreover, the GI50 with UO-31 renal is under 0.01 µM; in the test on UACC-62 melanoma, 0.0509 µM and < 0.01 µM.
With `COC(=O)c1oc2c(C(=O)/C=C/c3ccc(OC)cc3)c(OCCN(C)C)ccc2c1C`, the GI50 in the test with MOLT-4 leukemia was 2.59 µM; with HL-60(TB) leukemia it was 1.88 µM; in the test with KM12 colon, 9.43 µM; with NCI-H460 lung it was 4.56 µM; in the test with ACHN renal, 5.9 µM; with A498 renal, 10.1 µM. Besides, the GI50 was 10.3 µM with NCI/ADR-RES ovarian, 5.99 µM in the test on IGROV1 ovarian, 5.14 µM in the test on UO-31 renal and 12.3 µM in the test with UACC-62 melanoma. Moreover, the TGI in the test with MOLT-4 leukemia was 7.47 µM; in the test on HL-60(TB) leukemia, 6.01 µM; in the test on KM12 colon, 24.5 µM; in the test with NCI-H460 lung it was 17.5 µM; with ACHN renal it was 19.5 µM; in the test on A498 renal it was 22.6 µM. The TGI in the test on NCI/ADR-RES ovarian turned out to be 28 µM; in the test with IGROV1 ovarian it was 21.4 µM; with UO-31 renal, 18.2 µM; in the test on UACC-62 melanoma it was 27.1 µM.
On to `CCOc1ccn(-c2ccc(F)cc2)c(=O)c1C(=O)Nc1ccc(Oc2ccnc(N)c2Cl)c(F)c1`, for which the GI50 in the test with MOLT-4 leukemia was 5.78 µM; in the test on HL-60(TB) leukemia, 15.3 µM; with KM12 colon it was 0.404 µM; in the test on NCI-H460 lung, 4.74 µM; with ACHN renal, 9.22 µM; in the test on A498 renal, 1.6 µM. For the same molecule, the GI50 was 13.6 µM in the test with NCI/ADR-RES ovarian, 17.3 µM in the test on IGROV1 ovarian, 8.99 µM in the test with UO-31 renal and 2.83 µM with UACC-62 melanoma. Besides, the TGI in the test on MOLT-4 leukemia was 59 µM; in the test on HL-60(TB) leukemia, 38.6 µM; in the test on KM12 colon it was over 100 µM; in the test on NCI-H460 lung it was over 87 µM; with ACHN renal it was over 89.1 µM; with A498 renal, 12.2 µM. Besides, the TGI was over 65.7 µM in the test with NCI/ADR-RES ovarian, over 100 µM in the test with IGROV1 ovarian, 63.4 µM in the test on UO-31 renal and 18.5 µM with UACC-62 melanoma.

The record behind these values is PubChem BioAssay (NCI).
